In patent US7776572B2, “Method for reducing loss of enzyme activity during storage” (Corning Incorporated, priority 1996, dated 2010):

Columns and labels:
bound protein = assay: Colloidal gold staining of bound protein after MDCK culture in media containing 5% FBS, visual; settings: colloidal gold after cell culture, visual observation
Description: The procedures used were as follows. Polystyrene 24-well plates were coated with the non-ionic surfactants listed in Table 5 in accordance with the procedures described in Materials and Methods. Uncoated plates were used as a control. For comparison, plates with a covalently attached acrylamide coating (Corning Costar Catalog #2500) and with a stearic acid coating were also tested. The stearic acid coating was applied in the same manner as the non-ionic surfactants again using a 0.1% (w/v) solution.
The plates were gamma sterilized at 1.5 Mrad and then inoculated with 5.6×10^4 MDCK […] per well in 1 ml of complete media containing 5% FBS (Fetal Bovine Serum). Incubation was carried out at 37° C. in a 5% CO2 atmosphere for two days. The plates were fixed and stained, and cell attachment was noted. Following this, the wells were stained using the colloidal gold technique to detect bound protein. Only visual observations were made.

IgG [1] = assay: IgG/Au staining of coated polystyrene, type of endgroups
Description: Except where indicated, the non-ionic surfactants were applied to the hydrophobic surfaces being tested as a 0.1% (weight/volume) solution in isopropanol. A sufficient amount of coating solution was used to cover the surface being testing with a thin layer of the solution (e.g., 25 μl of the solution per well for a standard 24-well plate). In some cases, the solution was applied to surface by spraying; in others, it was poured onto the surface (into the well). Except where indicated, coated samples were either dried at 70° C. for 30 minutes in an air circulated oven or dried at room temperature overnight to evaporate the isopropanol. Protein binding was determined in some examples using a colloidal gold straining procedure. In accordance with this procedure, colloidal gold becomes electrostatically attached to bound protein and is detected by measuring absorbance at 550 nanometers. Bio-Rad Laboratories' Colloidal Gold Total Protein Stain was used for this purpose, with absorbance being measured with a Cambridge Technologies Plate Reader (No. 7520). The non-ionic surfactants listed in Table 6 were tested for their ability to produce a low binding surface using the techniques described in Materials and Methods. Polystyrene was used as the hydrophobic test surface and IgG/Au staining was used as the readout.

[2] = system: ^125I-IgG (goat anti-mouse); assay: Radiometric determination of IgG binding to surfactant-coated polystyrene microtiter wells; settings: not sterilized
Description: The hydrophobic surfaces used were flat bottom microtiter plates composed of high binding polystyrene (Corning Costar No. 2581) and medium binding polystyrene (Corning Costar No. 2587). Testing was performed with and without gamma radiation sterilization using cobalt 60 (1.5 Mrad).
The surfactants were applied to the test plates as described in Materials and Methods, followed by sterilization where indicated.
Levels of protein binding were determined using a radiolabeled protein, namely, ^125I-IgG (goat anti-mouse) purchased from DuPont/NEN. Unlabeled IgG in sodium carbonate buffer pH 9.2 was spiked with ^125I-IgG so that the final concentration of labeled IgG and cold IgG in the test solution was 10 μg/mL.
Aliquots of 0.1 milliliters of the protein solution were placed in quadruplicate in the wells of 8-well strips removed from the test microtiter plates. The wells were incubated overnight at 4° C. with shaking. The supernatants were removed from the wells, followed by three washes with 0.2 mL of PBS. The wells were then dried and individually counted to determine “total” IgG binding. After determining “total” binding, the wells were incubated for two hours in 0.2 mL of PBS-Tween (0.05%) at room temperature with shaking. The supernatants were removed from the wells followed by three washes with 0.2 mL of PBS. The wells were dried and individually counted to determine “tight” IgG binding.
Untreated high binding and medium binding plates were used as controls. A comparative experiment was also performed in which a BSA protein coating was used in place of a surfactant coating. The BSA was preabsorbed onto the walls of the wells and then washed to remove excess material. Testing was then performed using the radiolabeled IgG solution as described above.
Radiolabel measurements were performed in a double blind study at BioMolecular Assays (Woburn, Mass.). IgG binding values per microwell were converted to ng/cm^2 values using a surface area of 0.94 cm^2 for a 0.1 mL volume.

Horse IgG = assay: Protein binding by colloidal gold staining, coated medium binding polystyrene plates; settings: coated medium binding PS; IgG 10 μg/ml, pH 9.4
Description: Except where indicated, the non-ionic surfactants were applied to the hydrophobic surfaces being tested as a 0.1% (weight/volume) solution in isopropanol. A sufficient amount of coating solution was used to cover the surface being testing with a thin layer of the solution (e.g., 25 μl of the solution per well for a standard 24-well plate). In some cases, the solution was applied to surface by spraying; in others, it was poured onto the surface (into the well). Except where indicated, coated samples were either dried at 70° C. for 30 minutes in an air circulated oven or dried at room temperature overnight to evaporate the isopropanol.
Protein binding was determined in some examples using a colloidal gold straining procedure. In accordance with this procedure, colloidal gold becomes electrostatically attached to bound protein and is detected by measuring absorbance at 550 nanometers. Bio-Rad Laboratories' Colloidal Gold Total Protein Stain was used for this purpose, with absorbance being measured with a Cambridge Technologies Plate Reader (No. 7520).
The surfactants were coated onto medium binding polystyrene plates (Corning Costar No. 2587) as described in Material and Methods.
The plates were incubated with IgG as follows: 0.1 ml of Horse IgG (Pierce Labs) at a working concentration of 10 μg/ml in 0.10M NaHCO3 buffer (pH9.4) were added to each well, incubated 30 minutes on a rocker table, and rinsed with dI H2O. The plates were gold stained overnight (0.3 ml/well), rinsed in dI H2O, air dried, and absorbance was measured at 550 nm.

IgG [3] = assay: Coating durability using water washes, IgG binding by colloidal gold
Description: Polystyrene plates having 24 wells (Corning Costar #9447) were coated with these surfactants as described in Materials and Methods. Durability was tested by adding dI H2O to the wells of a test plate (3.0 mls/well), following which the plate was placed on a rocker table. […] The protein solution was incubated with the plate on a rocker table for 30 minutes at 23° C., following which the plate was H2O rinse 3× (3 mls each time). The colloidal gold staining procedure described above was used to reveal bound protein. The staining comprised an overnight incubation on a rocker table at 23° C., a dI H2O rinse, drying at room temperature, and reading at 550 nm.

[4] = system: BSA protein (Bovine Serum Albumin, Fraction V); assay: BSA binding to coated polystyrene 24-well plates at different pH, colloidal gold stain
Description: Polystyrene plates having 24 wells (Corning Costar #9447) were coated as described in Materials and Methods.
BSA protein (Bovine Serum Albumin, Fraction V, Sigma) was prepared at 10 μg/ml in 0.10 M acetate buffer (pH=4.6), in 0.10 M PBS (pH=7.4), and in 0.10 M NaHCO3 buffer (pH=9.2). Wells of each coated plate, along with uncoated controls, were aliquoted 0.50 ml each of the protein solutions. The samples were run in triplicate.
The plates were placed on a rocker table for 30 minutes at 23° C. The protein solutions were then emptied from the plates, and the wells were rinsed three times with dl H2O. Thereafter, 1.0 ml of colloidal gold stain was added to each well (see Materials and Methods). The plates were placed on a rocker table overnight, rinsed three times with dI H2O, and air dried. Absorbance at 550 nm was then read using the Cambridge Technologies Plate Reader.

rat = settings: in vivo; cited from earlier work

CCCCCCCCCCCCCCCCCC(=O)O [STEARIC ACID, reference compound]
Visual Color Upon Protein Staining (bound protein): Very dark

PEO(400) DI-STEARATE
Bound Protein Absorbance at 550 nm (IgG [1]): 0.10

PEO(400) DI-OLEATE
Bound Protein Absorbance at 550 nm (IgG [1]): 0.15

PEO(600) DI-STEARATE
Bound Protein Absorbance at 550 nm (IgG [1]): 0.10

BSA Protein: BSA protein coating preabsorbed onto the wells, used in place of a surfactant coating [reference compound]
Total IgG binding, Non-Sterilized ([2]; coated polystyrene wells, after three PBS washes): 594 ng/cm^2 | Tight IgG binding, Non-Sterilized ([2]; after two hours in PBS-Tween (0.05%)): 173 ng/cm^2

SORBITOL MONO-LAURATE
IgG Protein Binding Absorbance (550 nm) (Horse IgG): 0.00 | Absorbance (550 nm) Initial (IgG [3]; coated polystyrene, no water wash): 0.00 | Absorbance (550 nm) 1 Time 1 hr 23° C. (IgG [3]; dI H2O wash 1 time, 1 hr, 23° C.): 0.00 | Absorbance (550 nm) 1 Time 24 hr 23° C. (IgG [3]; dI H2O wash 1 time, 24 hr, 23° C.): 0.00 | Absorbance (550 nm) 1 Time 24 hr 37° C. (IgG [3]; dI H2O wash 1 time, 24 hr, 37° C.): 0.00 | Absorbance (550 nm) 1 Time 24 hr 70° C. (IgG [3]; dI H2O wash 1 time, 24 hr, 70° C.): 0.00-0.02 | Absorbance (550 nm) 6 Times 30 min each 23° C. (IgG [3]; dI H2O wash 6 times, 30 min each, 23° C.): 0.02-0.06 | Absorbance (550 nm) pH = 9.2 ([4]; BSA 10 μg/ml in 0.10 M NaHCO3 buffer): 0.00 | Absorbance (550 nm) pH = 7.4 ([4]; BSA 10 μg/ml in 0.10 M PBS): 0.00 | Absorbance (550 nm) pH = 4.6 ([4]; BSA 10 μg/ml in 0.10 M acetate buffer): 0.00

[Cl-].[Na+] [NaCl, reference compound]
LD50 (rat): 4 grams/Kg
